Experiment: Solubility test of ginsenoside compound K depending on type of solvent
Format: physicochemical
Settings: 95% of solvent and 5% of ginsenoside compound K
Description: The solubility of ginsenoside compound K was tested to be checked for representative polar and nonpolar solvents mainly used in cosmetics.

CC(C)=CCC[C@](C)(O[C@@H]1O[C@H](CO)[C@@H](O)[C@H](O)[C@H]1O)[C@H]1CC[C@]2(C)[C@@H]1[C@H](O)C[C@@H]1[C@@]3(C)CC[C@H](O)C(C)(C)[C@@H]3CC[C@]12C [ginsenoside compound K, 20-O-β-D-glucopyranosyl-20(S)-protopanaxadiol]
Solubility (60° C.) (solvent Ethanol): Soluble
Solubility (room temperature) (solvent Ethanol): Soluble
Solubility (60° C.) (solvent Glycerin): Insoluble
Solubility (room temperature) (solvent Glycerin): Insoluble
Solubility (60° C.) (solvent Mineral Oil): Insoluble
Solubility (room temperature) (solvent Mineral Oil): Insoluble
Solubility (60° C.) (solvent Non-Polar Ester Oil): Insoluble
Solubility (room temperature) (solvent Non-Polar Ester Oil): Insoluble
Solubility (60° C.) (solvent Polar Ester Oil): Insoluble
Solubility (room temperature) (solvent Polar Ester Oil): Insoluble
Solubility (60° C.) (solvent Silicone): Insoluble
Solubility (room temperature) (solvent Silicone): Insoluble
Solubility (60° C.) (solvent Surfactant): Insoluble
Solubility (room temperature) (solvent Surfactant): Insoluble
Solubility (60° C.) (solvent Vegetable Oil): Insoluble
Solubility (room temperature) (solvent Vegetable Oil): Insoluble
Solubility (60° C.) (solvent Water): Insoluble
Solubility (room temperature) (solvent Water): Insoluble

— patent US20210330566A1, “WATER-SOLUBILIZED MIXTURE OF GINSENOSIDE COMPOUND K AND METHOD OF WATERSOLUBILIZING GINSENOSIDE COMPOUND K” (VENN SKINCARE, INC., priority 2018, published 2021)
